The values that follow come from patent publication US20030211076A1, “Compositions and methods for treatment of proliferative disorders” (priority 2003, published 2003).

For experiment [1], the target named is T1, lysyl oxidase (LO) (Bos taurus, UniProt P33072).
T1 construct: per mature LO molecule (32 kD); from tissue
T1 sequence (P33072 170-418): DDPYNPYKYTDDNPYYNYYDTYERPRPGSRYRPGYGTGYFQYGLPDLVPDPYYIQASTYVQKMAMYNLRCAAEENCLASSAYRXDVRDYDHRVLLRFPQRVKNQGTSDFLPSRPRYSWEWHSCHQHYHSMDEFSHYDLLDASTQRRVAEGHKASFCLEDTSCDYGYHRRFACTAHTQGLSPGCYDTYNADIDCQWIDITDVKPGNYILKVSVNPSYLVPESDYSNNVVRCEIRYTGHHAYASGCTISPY
As to the kind of experiment: LO-dependent H2O2 release, horseradish peroxidase-coupled fluorescence assay (substrate potential for LO). It is filed as biochemical. The note with it: 55° C. and 37° C. The protocol: The oxidation of a primary amine substrate by LO yields stoichiometric amounts of the corresponding aldehyde, hydrogen peroxide and ammonia, as shown: RCH2NH2+O2+H2O→RCHO+H2O2+NH3 (Kagan, 1986). To assess the substrate potential of FGF2, LO-dependent H2O2 release was monitored in assays using FGF2 as the sole substrate, using both the optimum temperature for LO activity of 55° C. and the physiological temperature of 37° C. (Trackman et al., 1981).
LO reaction with FGF2 as a substrate was assessed by a horseradish peroxidase-coupled fluorescence assay for H2O2 production. Reaction mixtures contained 0.25 mg of sodium homovanillate(HVA), 40 μg of HRP, and FGF2 at doses as indicated below in 0.05 M sodium borate buffer, pH 8.2, in a final volume of 2 ml. Assays were initiated by the addition of LO to reaction mixtures. H2O2 release was continuously monitored at excitation and emission wavelengths of 315 and 425 nm, respectively, at a constant temperature of 55° C. or 37° C., as specified, in the thermostatted cuvette chamber of an SLM Aminco Bowman Series 2 Luminescence Spectrometer. All activity data were corrected for background rates of H2O2 release determined in complete assay mixtures supplemented with 200 μM BAPN, an irreversible inhibitor of LO. In FIG. 4, solid curves represent the time course of H2O2 release at 55° C. in the reaction of 0.16 μM LO with 0.23 (a), 0.45 (b) and 0.9 (c) μM FGF2, respectively. Dotted curve (d) represents the time course of H2O2 release in the reaction of 0.16 μM LO with 0.9 μM FGF2 at 37° C. The same data were obtained from three separate experiments.
Using the fluorometric assay (Trackman et al., 1981) to monitor LO-dependent H2O2 release in vitro, the substrate potential of other growth factors was also assessed. Major members of the FGF family tested included FGF 1, 4, 5, 6, 7 and EGF (note: All factors are human recombinant forms purchased from R & D Systems, Inc., Minneapolis, Minn.).
A human recombinant disulfide-linked dimer of VEGF165 (MW: 42 kDa)(R & D Systems) as a sole substrate was tested by using the standard in vitro LO catalysis assays as described above for FIG. 4 (Trackman et al., 1981). Curves represent the time course of H2O2 release at 55° C. (a) or 37° C. (b) in the reaction of 0.10 μM LO with 0.45 μM VEGF165. All activity data were corrected for background rates of H2O2 release determined in complete assay mixtures supplemented with the same amounts of LO preincubated with 100 μM BAPN for 15 min at 37° C. The same data were obtained from three separate experiments.
The standard in vitro LO catalysis assays as described above for FIG. 4 (Trackman et al., 1981) using human recombinant PDGF-AB (R & D Systems) as a sole substrate was tested. […] In FIG. 19, curves represent the time course of H2O2 release at 55° C. (a) and 37° C. (b) in the reaction of 0.11 μM LO with 0.46 μM PDGF-AB, respectively. All activity data were corrected for background rates of H2O2 release determined in complete assay mixtures supplemented with the same amounts of LO preincubated with 100 μM BAPN for 15 minutes at 37° C. The same data were obtained from three separate experiments.
To analyze the substrate potential of Tat, the standard in vitro LO catalysis assays as described in FIG. 4 (Trackman et al., 1981) was performed at the optimum temperature of 55° C. and at the physiological temperature of 37° C. A recombinant Tat with 9 lysines in a total of 86 amino acids was used as a sole substrate. FIG. 12A represents a dose and temperature-dependent response. Curves represent the time course of H2O2 release at 55° C. (solid) or 37° C. (dotted) in the reaction of 0.10 μM LO with 0.22 (a and d), 0.43 (b and e) and 0.85 (c and f) μM Tat, respectively. All activity data were corrected for background rates of H2O2 release determined in complete assay mixtures supplemented with the same amounts of LO preincubated with 100 μM BAPN for 15 min at 37° C. […]

Experiment [2] has as its system human recombinant FGF2 (18 kDa). Briefly: LO-catalyzed crosslinking of 125I-labeled FGF2, SDS-PAGE and autoradiography. Format: biochemical. The note with it: 5 μg 125I-FGF2 with 4 μg LO, 37° C., 1 h. The protocol:
To determine crosslinking of FGF2 monomers as a result of its oxidation by LO, human recombinant FGF2 (18 kDa) was iodinated and ^1251-labeled FGF2 (5 μg) and was then incubated with 4 μg of LO in 0.1 M sodium borate buffer, pH 8.2 in a final volume of 100 μl, at 37° C. for 1 h. The reaction was quenched by the addition of 100 μM BAPN followed by incubation at 37° C. for 30 min. Aliquots of the incubated reaction mixtures were analyzed by SDS-PAGE (15%) and autoradiography. Lane 1 represents [^125]FGF2; lane 2 represents [^1251]FGF2+LO. The relative electrophoretic mobilities of pre-stained molecular weight standards are indicated under MW.

Take `N#CCCN` [BAPN, β-Aminopropionitrile, reference compound]: in experiment [1] (100 μM BAPN added at 200 seconds), the “effect on H2O2 release when added after the reaction of LO with Tat was initiated” value is “failed to block H2O2 release”. Besides, the “inhibition of the reaction of LO with Tat” value in experiment [1] (LO preincubated with 100 μM BAPN for 5 minutes) was “totally inhibited”.
As for lysyl oxidase [LO], in experiment [2], the “crosslinking of FGF2 monomers” value was “induced the appearance of covalent dimers, oligomers and higher polymers”.
